Here are results for 18 compounds from ChEMBL document CHEMBL1201862, “PubChem BioAssay data set” (2004).

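Grown in 96-well plates, cells were treated for 48 hours with each compound at five concentrations. Insufficient inhibition: endpoint recorded as highest concentration tested. The concentration for 50% growth inhibition is given as GI50.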 Active and inactive are the calls of the source. Cut-off read from the data, not from the text of the source: active = GI50 up to about 1.1 µM and inactive = higher.

Among the test systems are XF498; DMS-273; DLD-1; DMS-114; HOP-18; M19-MEL; RXF 631; LXFL 529.
Holding throughout (assay): NCI-60 cell line screen, 48 h

With `C[C@]12CC[C@H](OC(=O)Cc3ccc(N(CCCl)CCCl)cc3)CC1CC[C@@H]1C2CC[C@]2(C)NC(=O)CCC12` (some centres not stated), the GI50 with XF498 was 13.6 µM (inactive); in the experiment with DMS-273, 5.64 µM (inactive); in the experiment on DLD-1, 16.3 µM (inactive); with DMS-114 it was 6.31 µM (inactive); with HOP-18 it was 16.7 µM (inactive); with M19-MEL, 14.3 µM (inactive). For the same compound, the GI50 in the experiment on RXF 631 was 16 µM (inactive); in the experiment with LXFL 529, 8.3 µM (inactive).

For `COc1ccc(C(=O)C#Cc2cnc(O)nc2O)cc1`, the GI50 with DMS-273 is 14.9 µM (inactive); in the experiment with DLD-1, 6.32 µM (inactive); in the experiment on DMS-114, 18.7 µM (inactive); in the experiment on HOP-18, 24.5 µM (inactive); with M19-MEL, 8.93 µM (inactive); in the experiment with RXF 631, 8.89 µM (inactive). The GI50 in the experiment with LXFL 529 was 3.36 µM (inactive).

As for `COC(=O)C[C@H]1CCC2(OCCO2)[C@]1(C)C(=O)OC`, the GI50 with XF498, in the experiment with DMS-273, in the experiment on DMS-114, in the experiment with M19-MEL, with RXF 631 and in the experiment on LXFL 529 was > 100 µM (inactive) each time.

As for `COc1ccc([C@@H]2CC(=O)NCCCCNCCCN2)cc1`, the GI50 in the experiment on XF498, with DMS-273, in the experiment on DLD-1, in the experiment with DMS-114, in the experiment with HOP-18 and in the experiment with M19-MEL was > 100 µM (inactive) throughout. In the experiment on LXFL 529, the GI50 is > 100 µM (inactive).

On to `C=C(CS(=O)(=O)c1ccccc1)C(=O)OCC`, for which the GI50 was 19.2 µM (inactive) in the experiment on XF498; 16.4 µM (inactive) in the experiment on DMS-273; 4.49 µM (inactive) with DLD-1; 5.37 µM (inactive) in the experiment with DMS-114; 1.9 µM (inactive) in the experiment with RXF 631; 13.4 µM (inactive) in the experiment on LXFL 529.

Regarding `CC(C)(CN1CCCCC1)C(=O)/C=C/c1ccc(Br)cc1`, the GI50 in the experiment on XF498 was 2.05 µM (inactive); with DMS-273, 2 µM (inactive); in the experiment on DLD-1 it was 3.01 µM (inactive); in the experiment with DMS-114, 1.47 µM (inactive); in the experiment on HOP-18, 2.47 µM (inactive); with M19-MEL, 14.8 µM (inactive). The GI50 with LXFL 529 was 1.81 µM (inactive).

Regarding `Cc1cc(C)c2[s+]snc2c1`, the GI50 in the experiment on XF498 was 30 µM (inactive); with DMS-273, 47.1 µM (inactive); in the experiment with DLD-1, > 100 µM (inactive); in the experiment on HOP-18, 44.8 µM (inactive); in the experiment with M19-MEL it was > 100 µM (inactive); in the experiment on RXF 631, 96.6 µM (inactive). For the same compound, in the experiment with LXFL 529, the GI50 was 34.4 µM (inactive).

As to `CCOC1=C2C(C)(CCC3[C@@]4(C)C=CC(=O)C(C)(C)C4CC(O)[C@@]23C)C(c2ccoc2)C1=O` (some centres not stated), the GI50 with XF498 was > 10 µM (inactive); in the experiment on DMS-273, 25.2 µM (inactive); in the experiment with DLD-1 it was 11.4 µM (inactive); in the experiment on DMS-114 it was 15.6 µM (inactive); with HOP-18 it was 33.7 µM (inactive); with M19-MEL it was 18.9 µM (inactive). Moreover, the GI50 with RXF 631 was 17.9 µM (inactive).

For the compound `Cc1nc2sccn2c1C(=O)N/N=C1\SCC(=O)N1C`, the GI50 in the experiment on XF498 was > 100 µM (inactive); with DMS-273, > 100 µM (inactive); in the experiment on DLD-1 it was > 100 µM (inactive); in the experiment on DMS-114, > 100 µM (inactive); with HOP-18 it was 26.3 µM (inactive); with M19-MEL, > 100 µM (inactive). The GI50 in the experiment on RXF 631 and in the experiment on LXFL 529 was > 100 µM (inactive) throughout.

Take `CC1=NN(C(=O)CC(=O)N(C(=O)c2ccccc2Cl)c2ccc(C)cc2)C(=O)C1/N=N/c1ccc([N+](=O)[O-])cc1` (configuration not stated): the GI50 in the experiment on XF498 is > 100 µM (inactive); in the experiment with DMS-273 it was 48.9 µM (inactive); with DLD-1, > 45.9 µM (inactive); in the experiment with DMS-114, > 42.8 µM (inactive); in the experiment on HOP-18, > 62.8 µM (inactive); in the experiment with LXFL 529 it was 49.4 µM (inactive).

Turning to `CC[C@@]1(O)C(=O)OCc2c1cc1n(c2=O)Cc2cc3c(OC)cccc3nc2-1`, the GI50 in the experiment on XF498 is 0.0942 µM (active); in the experiment with DMS-273, < 0.01 µM (active); in the experiment with DLD-1, 0.27 µM (active); in the experiment with DMS-114 it was < 0.01 µM (active); in the experiment with HOP-18 it was 0.0425 µM (active); in the experiment with M19-MEL it was 0.056 µM (active). The figures for the GI50 in the experiment on RXF 631 and in the experiment with LXFL 529 were 0.0628 µM (active) and 0.492 µM (active), respectively.

On to `COc1ccc(C(=O)C2=NON3OC23C(=O)c2ccc(OC)cc2)cc1` (configuration not stated), for which the GI50 in the experiment with XF498 was 10 µM (inactive); in the experiment on DMS-273, 19.1 µM (inactive); in the experiment on DLD-1, 7.28 µM (inactive); in the experiment with DMS-114, 5.96 µM (inactive); in the experiment with HOP-18, 18.9 µM (inactive); in the experiment on M19-MEL it was 16.5 µM (inactive). In addition, the GI50 is 15.1 µM (inactive) in the experiment with RXF 631 and 2.63 µM (inactive) with LXFL 529.

Regarding `CC1(C)OC2C(CCP(=O)(O)O)OC(c3nc(C(N)=O)cs3)C2O1` (configuration not stated), the GI50 in the experiment on DMS-273, with DLD-1, in the experiment with DMS-114, in the experiment with HOP-18, with M19-MEL and with RXF 631 was > 100 µM (inactive) in each case. Besides, the GI50 with LXFL 529 was > 100 µM (inactive).

In the case of `CCOP(=O)(OCC)/C(C#N)=C\c1ccsc1`, the GI50 with XF498, in the experiment with DMS-273, in the experiment on DLD-1, with DMS-114, with HOP-18 and with M19-MEL was > 100 µM (inactive) in each case. Moreover, the GI50 in the experiment with LXFL 529 was > 100 µM (inactive).

`COC(=O)[C@@H](C)[C@H]1CC[C@@](C)(CCC2=C(C)CC3C=C(C)CCC3C2(C)C)OO1` (some centres not stated): the GI50 with DMS-273 is 2.18 µM (inactive); in the experiment on DLD-1 it was 0.962 µM (active); in the experiment on DMS-114, 1.81 µM (inactive); with M19-MEL, 1.77 µM (inactive); in the experiment on RXF 631, 2 µM (inactive); with LXFL 529 it was 1.03 µM (active).

For `O=C(Cc1ccccc1)NN1C(=O)C(Cl)C1c1cc(Br)ccc1O` (configuration not stated), the GI50 in the experiment on XF498 is 7.76 µM (inactive); with DMS-273, 5.19 µM (inactive); in the experiment on DLD-1, 3.33 µM (inactive); in the experiment on DMS-114 it was 2.23 µM (inactive); in the experiment on HOP-18, 5.01 µM (inactive); with M19-MEL it was 4.62 µM (inactive). Moreover, the GI50 with LXFL 529 was 5.68 µM (inactive).

In the case of `CN(C)CCC(=O)/C=C\c1ccccc1`, the GI50 was 14.9 µM (inactive) with XF498; 16.3 µM (inactive) in the experiment on DMS-273; 15.8 µM (inactive) in the experiment with DLD-1; 18.2 µM (inactive) in the experiment on DMS-114; 22.6 µM (inactive) with HOP-18; 19.7 µM (inactive) in the experiment on M19-MEL. The GI50 with RXF 631 is 18.1 µM (inactive); with LXFL 529, 13.5 µM (inactive).

With `COc1ccc(NC(=O)/C(Cc2nc3ccccc3nc2O)=N\O)c(OC)c1`, the GI50 in the experiment on XF498, in the experiment on DLD-1, with DMS-114, in the experiment on HOP-18, with M19-MEL and in the experiment on RXF 631 was > 100 µM (inactive) each time. Further, the GI50 in the experiment on LXFL 529 is > 100 µM (inactive).
